“Also recorded” adds a separate entry of the source.
How the values were obtained:
[1] = tested on: GL261 murine glioma cells; assay: GL261 cell growth assay (MTT salt); format: cell-based; details: 5 μM GlaB, in vitro, starting from 48 h of treatment, N=3, p<0.001
Protocol: The GL261 murine glioma cells (Leibniz-Institute DMSZ, ACC802) are grown in an incubator at 37° C. and 5% CO2 in a culture medium containing D-MEM (GIBCO), 20% fetal bovine serum (GIBCO), antibiotics (100 IU/ml penicillin G, 100 μg/ml streptomycin, 2.5 μg/ml amphotericin B), 2 mM glutamine and 1 mM pyruvate sodium.
GL261 murine glioma cells were seeded in culture medium in 96-well plates (5000 cells/well). After 4 h they were treated with 5 μM GlaB (C. Ingallina, P. M. Costa, F. Ghirga, R. Klippstein, J. T. Wang, S. Berardozzi, N. Hodgins, P. Infante, S. M. Pollard, B. Botta, K. T. Al-Jamal. Polymeric glabrescione B nanocapsules for passive targeting of Hedgehog-dependent tumor therapy in vitro. Nanomedicine, (2017), 12(7), 711-728. DOI: 10.2217/nnm-2016-0388) or the vehicle in which it is dissolved (DMSO) and every 24 h for three days their growth was evaluated using the dehydrogenation method of MTT salt (3-(4,5-dimetiltiazol-2-yl)-2,5-diphenyltetrazolium bromide, Sigma-Aldrich). The MTT salt was added to each well containing culture medium at the concentration of 0.5 mg/ml, and after 2 h of incubation at 37° C., cell growth was measured by measuring the spectrophotometer, at a wavelength of 570 nm, the absorbance values related to the amount of MTT salt transformed into formazan (insoluble violet-colored salt) simultaneously by live control cells and cells treated with GlaB.

[2] = tested on: murine glioma GL261 cells; assay: Orthotopic GL261 glioma in mice, tumor volume (procedure A); format: in vivo, mice (C57BL/6); details: for tumor volume: every two days, N=7, vehicle ethanol:2-hydroxypropyl-beta-cyclodextrin 1:5
Protocol: Male wild type (C57BL/6) mice were inoculated with murine glioma cells (GL261, Leibniz-Institute DMSZ, ACC802) at the age of 8 weeks (animals weighing an average weight of 22 g). After being anesthetized by intraperitoneal injection of 50 mg/kg Zoletil anaesthetic (combination of tiletamine hypochloride and zolazepam hypochloride) associated with 10 mg/kg Rompun (xylazine), the animals were subjected to orthotopic injection (subcortical/striatum, […] anteroposterior, −2 mm lateral to the bregma) of GL261 cells (1×10^5 cells per mouse) using a stereotaxic apparatus to accurately and reproducibly reach the right striatal region. The cells, resuspended in 5 μl of phosphate buffer, were injected by the use of a Hamilton syringe connected to the stereotaxic apparatus.
GlaB dissolved in the vehicle constituted by ethanol (Sigma-Aldrich #51976): 2-hydroxypropyl-beta-cyclodextrin (Sigma-Aldrich #C0926) solution (10% (w/v) in H2O) in a 1:5 volume ratio was administered by intraperitoneal injections (ip, 35 mg/kg) and intranasally (in, 4.4 mg/kg), every two days after 7 days from the implantation of tumor cells for a total of 6 days of treatment. Intranasal administration was performed through the so-called “snort delivery”: drops of the medicament were sniffed by the animal, anesthetized with 2.5% Isofluorane, until reaching the upper nasal cavity.
The day after the last administration of GlaB, mice were perfused with phosphate buffer and then 4% PFA and their brain isolated, further fixed and frozen. After about 48 h each frozen brain was cut into subsequent coronal slices, 20 μm thick, collected at 100 μm intervals. The determination of tumor volume was performed by histological staining (hematoxylin and eosin) of the brain slices: the tumor mass is recognizable because it has a darker color compared to the remaining healthy tissue. The tumor volume is calculated through analysis of images obtained under a phase contrast microscope (ECLIPSE Ti-S, Nikon) using commercial software released in the public domain (ImageJ, National Institutes of Health of the United States) able to measure the tumor area in each slice, necessary for volume calculation.

[3] = GlaB brain level concentration by HPLC-ESI-MS after intranasal administration; format: in vivo, mice
Protocol: For HPLC analysis, mice were treated as above and sacrificed two hours post one single nasal administration; brains were collected and frozen (−80° C.) until use.
HPLC analyses were performed on brain samples from mice treated with GlaB/PEG-Cholane. The brain sample (500 mg), previously stored at −80° C. for 24 hours, was homogenized with 1 mL of a Phosphate Buffered Saline solution, PBS, using an ultrasound probe. A solution of ZnSO4 (0.1 M in H2O, 1 mL) and acetonitrile (1 mL) were added to the mixture, which was further homogenized with ultrasound for 15 minutes. Subsequently, the brain homogenate was stirred for 1 hour at room temperature and was then centrifuged at 3000 g for 5 min at T=4° C. The supernatant was collected. The following procedure to obtain a brain extract was repeated twice. Acetonitrile (1 mL) was added to the brain residue, stirred for 30 minutes at room temperature, then centrifuged at 3000 g for 5 min at T=4° C. and the supernatant collected. Brain extracts samples were centrifuged for five minutes at 5000 rpm and 20 μL of supernatant injected into the HPLC without further treatments.
The HPLC chromatographic system used was an UltiMate 3000 RS system (Thermo Fisher Dionex Sunnyvale, Calif.), equipped with an UltiMate 3000 LPG-3400RS Low Pressure Mixing Biocompatible Gradient Pump, an in-line split-loop well plate sampler, a thermostated column ventilated compartment (temperature range: 5-110° C.) and a diode array detector (UltiMate 3000 DAD-3000RS Rapid Separation Diode Array Detector, up to 200 Hz acquisition rate) with a low dispersion 13 μL flow cell. […]
Calibration standards ranged from 0.128 to 8.2 μg/mL for UV curve (y=0.2574x−0.2042, R2=0.9997) with a Limit of Quantitation, LOQ, (defined for a signal-to-noise ratio >10) of 4.1 ng on column, whereas calibration curve ranged 0.128-8.2 μg/ml for MS (y=11176x−1505.9) showing a correlation coefficient (r^2) equal to 0.9991.
A known amount (0.5 μg/mL) of the GlaB analyte (a spike) was added to treated brain sample. The samples and the samples plus spike were then analyzed. […]

## COc1cc(OC)c2c(=O)c(-c3ccc(OCC=C(C)C)c(OCC=C(C)C)c3)coc2c1 [GlaB, Glabrescione B]
[1]
  growth of GL261 tumor cells (MTT absorbance) compared to vehicle (DMSO): reduce their growth capacity; also recorded: significant reduction
[2]; intranasal formulation in ethanol:2-hydroxypropyl-beta-cyclodextrin solution (1:5 by volume), 4.4 mg/kg
  tumor volume reduction: about 70%
[2]; intranasal, 4.4 mg/kg
  glioma volume in vivo compared to control solution: significantly reduce glioma volume
  tumor volume: 0.21 mm³
[2]; intraperitoneal, 35 mg/kg
  glioma volume in vivo compared to control solution: significantly reduce glioma volume
  tumor volume: 0.48 mm³
[3]; C57BL/6, mouse, brain, other: nasal administration (intranasal), 1.44 mg/Kg, mice, two hours post one single nasal administration of GlaB/PEG-Cholane, read-out: estimated brain level concentration
  concentration at 2 h: 3600 ng/g
[3]; intranasally GlaB/PEG-Cholane treated mice vs control PEG-Cholane treated mice
  GlaB peak in extract ion chromatogram of brain extract (drug reaches brain): presence of GlaB peak
[3]; mice, two hours post one single nasal administration of GlaB/PEG-Cholane, HPLC-MS SIM m/z 451
  GlaB quantified in brain extract, amount on column: 6 ng on column
